According to paper PMC11025159 (Journal of Translational Medicine, 2024):
Where “and” joins values, the source holds several entries; their conditions need not be identical. Equal entries are not always repeated.

Assays:
[1] = Body weight of athymic nude mice during topical treatment; format: in vivo, athymic nude mice (NU/J Foxn1nu); settings: individual mice
Protocol: . The groups are as follows: Group 1-Control (untreated), Group 2-Vehicle control, Group 3-tofacitinib citrate (0.8 mg/Kg), Group 4-tofacitinib citrate (0.08 mg/Kg), Group 5-MJ04 (0.08 mg/Kg), Group 6-MJ04 (0.04 mg/Kg), Group 7-MJ04 (0.016 mg/Kg), Group 8-baricitinib (0.1 mg/Kg), Group 9-baricitinib (0.04 mg/Kg), and Group 10-baricitinib (0.02 mg/Kg). At the end of the experiment, skin samples were collected and preserved in 10% neutral buffered formalin for tissue sectioning and staining using haematoxylin and eosin (H&E). […]

Panc-2 = experiment: MTT cell viability assay Panc-2; format: cell-based; settings: 48 h
Protocol: Cell viability was evaluated using an MTT colorimetric assay. Cells were seeded (10^5 cells/mL) in 96-well plates and allowed to grow overnight at 37 ℃ with 5% CO2 in a cell-culture incubator. On the following day, the cells were treated with small molecules at different concentrations (0.2–10 micro-molar) or vehicle (DMSO). Cells were then further incubated for 48 h.

[2] = system: Murine macrophages (J774a.1); experiment: Cytokines from LPS primed macrophages (ELISA); format: cell-based; settings: dose-dependent
Protocol: The supernatant was collected and stored at −20 ℃ for further cytokines analysis. The level of cytokines (TNF-α, IL1-β, and IL-6) was analyzed by sandwich ELISA as per the manufacturer protocol (BD Biosciences). In brief, capture antibodies were coated in the 96-well ELISA plate (Nunc) in respective coating buffer at 4 ℃ overnight. The plate was washed 4 times with washing buffer and blocked with the recommended blocking buffer for 1 h at room temperature. After incubation, plates were washed 4 times, added with sample and standard, and further incubated for another 2 h. Plates were then washed 4 times, added with detection antibody in combination of HRP for 1 h, and finally again washed 5 times. HRP substrate (TMB) was added and allowed to develop observable colour, and the reaction was stopped by adding 2 N H2SO4, and absorbance was recorded at 450 nm with 570 nm correction.

PI-3-K β = target: T1, PI-3-K β (Homo sapiens, UniProt P42338); experiment: Cell-free kinase assay PI-3-K β; format: biochemical; settings: Km ATP
T1 construct: purchased Promega Corporation V1690
Protocol: (§1) The cell-free kinase assays of small molecules were determined by following the manufacturer-recommended protocols. Different concentrations in triplicate were used to determine the IC50 value of the hit molecules (active molecules). For data analysis, GraphPad Prism V9.5 Software and a sigmoidal dose–response (variable slope) equation were used. Each value represents an average of three replicates per concentration.

GSK-3-β = target: T2, GSK-3-β (Homo sapiens, UniProt P49841); experiment: Cell-free kinase assay GSK-3-β; format: biochemical
T2 construct: purchased Promega Corporation V1991
Protocol: as §1

T2 sequence (P49841 whole entry): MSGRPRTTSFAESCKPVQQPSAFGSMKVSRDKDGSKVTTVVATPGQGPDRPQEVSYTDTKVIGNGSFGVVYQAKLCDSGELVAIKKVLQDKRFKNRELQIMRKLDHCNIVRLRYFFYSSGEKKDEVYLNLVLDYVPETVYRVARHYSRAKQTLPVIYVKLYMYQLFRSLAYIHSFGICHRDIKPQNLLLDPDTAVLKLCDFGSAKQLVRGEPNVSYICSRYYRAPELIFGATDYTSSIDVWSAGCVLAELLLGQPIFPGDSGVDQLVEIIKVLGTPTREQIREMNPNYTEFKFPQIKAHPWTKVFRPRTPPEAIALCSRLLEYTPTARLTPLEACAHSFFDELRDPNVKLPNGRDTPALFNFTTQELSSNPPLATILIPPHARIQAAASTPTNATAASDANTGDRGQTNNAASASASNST
T1 sequence (P42338 whole entry): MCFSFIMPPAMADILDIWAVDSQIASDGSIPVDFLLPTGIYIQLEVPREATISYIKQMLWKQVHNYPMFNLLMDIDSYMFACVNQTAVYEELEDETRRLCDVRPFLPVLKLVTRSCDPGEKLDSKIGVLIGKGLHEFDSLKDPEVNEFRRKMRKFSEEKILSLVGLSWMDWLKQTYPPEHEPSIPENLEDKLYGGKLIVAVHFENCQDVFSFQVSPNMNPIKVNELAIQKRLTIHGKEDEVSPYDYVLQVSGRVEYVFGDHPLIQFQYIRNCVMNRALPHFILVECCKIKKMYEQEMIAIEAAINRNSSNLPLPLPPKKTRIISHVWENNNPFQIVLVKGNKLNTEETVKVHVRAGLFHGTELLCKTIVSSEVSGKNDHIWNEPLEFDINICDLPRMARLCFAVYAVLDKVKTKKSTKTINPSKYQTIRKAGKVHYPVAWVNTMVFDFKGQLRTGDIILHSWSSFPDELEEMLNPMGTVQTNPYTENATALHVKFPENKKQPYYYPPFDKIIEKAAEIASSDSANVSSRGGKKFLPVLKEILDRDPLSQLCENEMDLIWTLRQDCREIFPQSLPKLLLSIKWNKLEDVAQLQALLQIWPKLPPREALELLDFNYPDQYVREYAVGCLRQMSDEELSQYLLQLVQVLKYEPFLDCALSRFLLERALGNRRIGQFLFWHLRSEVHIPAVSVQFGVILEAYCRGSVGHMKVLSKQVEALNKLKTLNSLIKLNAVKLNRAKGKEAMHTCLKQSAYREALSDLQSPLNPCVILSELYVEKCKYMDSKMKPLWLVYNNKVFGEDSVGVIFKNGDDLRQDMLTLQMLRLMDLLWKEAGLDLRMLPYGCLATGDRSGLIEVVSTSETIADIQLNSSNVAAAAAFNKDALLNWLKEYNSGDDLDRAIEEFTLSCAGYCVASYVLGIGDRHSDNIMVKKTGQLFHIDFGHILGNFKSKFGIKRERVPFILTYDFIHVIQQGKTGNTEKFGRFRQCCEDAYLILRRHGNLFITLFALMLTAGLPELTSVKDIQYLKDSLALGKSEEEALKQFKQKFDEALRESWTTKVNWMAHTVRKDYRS
T1 sequence (P27986 whole entry partner): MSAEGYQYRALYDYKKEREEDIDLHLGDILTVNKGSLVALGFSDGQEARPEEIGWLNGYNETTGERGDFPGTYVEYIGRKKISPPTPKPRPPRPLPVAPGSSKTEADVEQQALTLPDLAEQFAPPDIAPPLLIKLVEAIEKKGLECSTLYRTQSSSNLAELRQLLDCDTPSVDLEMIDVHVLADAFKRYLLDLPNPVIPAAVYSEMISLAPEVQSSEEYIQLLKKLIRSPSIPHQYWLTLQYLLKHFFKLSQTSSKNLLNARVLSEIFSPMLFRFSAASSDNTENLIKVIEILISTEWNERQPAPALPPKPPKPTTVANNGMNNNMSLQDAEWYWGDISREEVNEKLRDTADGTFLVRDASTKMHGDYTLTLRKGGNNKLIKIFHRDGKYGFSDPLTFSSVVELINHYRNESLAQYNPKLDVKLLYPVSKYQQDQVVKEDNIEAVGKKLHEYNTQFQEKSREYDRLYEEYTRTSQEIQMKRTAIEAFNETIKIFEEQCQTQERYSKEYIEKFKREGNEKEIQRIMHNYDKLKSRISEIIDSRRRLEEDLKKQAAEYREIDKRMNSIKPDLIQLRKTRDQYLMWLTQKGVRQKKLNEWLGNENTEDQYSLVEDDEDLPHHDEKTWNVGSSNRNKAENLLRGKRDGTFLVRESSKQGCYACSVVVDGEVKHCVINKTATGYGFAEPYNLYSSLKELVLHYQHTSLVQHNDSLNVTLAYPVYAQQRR

SMILES | Weight of nude mice (NU/J Foxn1nu) ([1]; 0.02 mg/kg, DAY 1) | Weight of nude mice (NU/J Foxn1nu) ([1]; 0.02 mg/kg, DAY 7) | Weight of nude mice (NU/J Foxn1nu) ([1]; 0.02 mg/kg, DAY 14) | Weight of nude mice (NU/J Foxn1nu) ([1]; 0.02 mg/kg, DAY 21) | Weight of nude mice (NU/J Foxn1nu) ([1]; 0.02 mg/kg, DAY 28) | Weight of nude mice (NU/J Foxn1nu) ([1]; 0.04 mg/kg, DAY 1) | Weight of nude mice (NU/J Foxn1nu) ([1]; 0.04 mg/kg, DAY 7) | Weight of nude mice (NU/J Foxn1nu) ([1]; 0.04 mg/kg, DAY 14) | Weight of nude mice (NU/J Foxn1nu) ([1]; 0.04 mg/kg, DAY 21) | Weight of nude mice (NU/J Foxn1nu) ([1]; 0.04 mg/kg, DAY 28) | Weight of nude mice (NU/J Foxn1nu) ([1]; 0.1 mg/kg, DAY 1) | Weight of nude mice (NU/J Foxn1nu) ([1]; 0.1 mg/kg, DAY 7) | Weight of nude mice (NU/J Foxn1nu) ([1]; 0.1 mg/kg, DAY 14) | Weight of nude mice (NU/J Foxn1nu) ([1]; 0.1 mg/kg, DAY 21) | Weight of nude mice (NU/J Foxn1nu) ([1]; 0.1 mg/kg, DAY 28) | IC50 (Panc-2) [nM] | level of proinflammatory cytokines TNF-α, IL1-β and IL-6 [2] | IC50 (PI-3-K β) [µM] | Fold of selectivity vs. JAK3 (GSK-3-β; GSK-3-β) | IC50 (GSK-3-β; Km ATP) [nM]
CCS(=O)(=O)N1CC(CC#N)(n2cc(-c3ncnc4[nH]ccc34)cn2)C1 [Baricitinib, baricitinib, reference compound] | 17.9 and 18.3 and 18.5 and 18.7 and 19.2 | 19.4 and 19.8 and 20.2 and 20.4 and 20.7 | 21.2 and 21.3 and 21.7 and 22.1 and 22.5 | 22.6 and 22.8 and 23.2 and 24.2 and 24.4 | 24.3 and 24.8 and 24.9 and 25.8 and 26.2 | 17.9 and 18.5 and 18.6 and 18.7 and 19.1 | 19.2 and 19.8 and 20.1 (2×) and 20.5 | 20.8 and 20.9 and 21.4 and 21.5 and 21.8 | 22.4 and 22.6 and 23.1 and 23.3 and 23.5 | 24.6 and 24.8 and 25.3 and 25.4 and 25.7 | 18.5 and 18.6 and 18.7 and 19.3 and 18.8 | 19.7 and 19.8 and 21.1 and 20.1 and 20.4 | 21.3 and 22.9 and 21.8 and 22.1 | 22.6 and 23.2 and 24.3 and 23.6 and 23.8 | 25.3 and 24.8 and 25.7 and 25.8 and 25.4 |  |  |  |  | 
Fc1ccc(-c2cnc3[nH]cc(-c4ccnc(NC5CC5)n4)c3c2)cc1 [MJ04] |  |  |  |  |  |  |  |  |  |  |  |  |  |  |  | 2770 | dampens the level of proinflammatory cytokines | > 10 | 908 | 1840
